Data: PMC4977651, “Molecular features of biguanides required for targeting of mitochondrial respiratory complex I and activation of AMP-kinase” (BMC Biology, 2016)
“And” between values parts separate entries of the source, which are not always exact repeats. Equal values may be shown once.

Experiments:
rat liver mitochondria = assay: ADP-stimulated rotenone-sensitive OCR in isolated rat liver mitochondria; type: biochemical; set-up: rotenone sensitive OCR after ADP stimulation, individual replicates / rotenone sensitive OCR after ADP stimulation, average: unit not given here; settings: for rotenone sensitive OCR after ADP stimulation, % of control, average / rotenone sensitive OCR after ADP stimulation, average: average of replicates; for rotenone sensitive OCR after ADP stimulation, % of control, individual replicates / rotenone sensitive OCR after ADP stimulation, individual replicates: replicate 1-5
Description: (§1) Complex I and mitochondrial membranes were prepared from Bos taurus (bovine) heart. Intact mitochondria were isolated from rat liver and mouse heart and liver. Membranes were prepared from mouse heart mitochondria by 5 s bursts of sonication at 4 °C and collected by centrifugation (75,000 × g, 1 h).
Isolated mitochondria were monitored using a Seahorse XF96 extracellular flux analyzer at 32 °C. Mouse heart mitochondria, and mouse and rat liver mitochondria were plated into XF96 plates at 4 and 16–20 μg per well, respectively, in 220 mM mannitol, 70 mM sucrose, 10 mM KH2PO4, 5 mM MgCl2, 1 mM EGTA, 0.2 % fatty acid-free BSA, and 2 mM HEPES (pH 7.4 at 37 °C) with 10 mM glutamate and 10 mM malate and adhered by centrifugation (2000 × g, 20 min, 4 °C). The medium was supplemented with a further 5 mM glutamate and 5 mM malate and the mitochondria incubated for 15 min. Then two baseline readings were taken before the biguanides were added at IC50/5. Biguanides were allowed to accumulate for 15–20 min before respiration was […] by the addition of 4 mM ADP. Rotenone (2 μM) was added at the end of the experiment. Data from wells with failed port injections were excluded from the analyses. The RCR values (state III versus state IV respiration) were 3.4, 4.8, and 4.6 for mouse heart, rat liver, and mouse liver, respectively.

[1] = biological target: isolated bovine heart complex I (Bos taurus, UniProt P03887+P03898+P17694+P42026); assay: NADH:decylubiquinone oxidoreduction by isolated complex I; type: biochemical; settings: bovine heart purified mitochondrial complex I; for HillSlope (best fit value) / LogIC50 (best fit value): Prism fit; for HillSlope (best fit value): no std. error; for IC50: Prism log(inhibitor) vs. response fit, Bottom 0, Top 100, read-out: IC50 (best fit value); for LogIC50 (best fit value): log of IC50 in mM
Description: as §1
Assays were performed at 32 °C in a SpectraMax 96-well plate reader. NADH:decylubiquinone oxidoreduction by complex I at 0.5 μg mL^−1 was measured in 20 mM Tris-HCl (pH 7.2), 0.15 % soy bean asolectin (Avanti Polar Lipids), and 0.15 % 3-((3-cholamidopropyl)dimethylammonium)-1-propanesulfonate (CHAPS, Merck Chemicals Ltd), with 200 μM decylubiquinone and 200 μM NADH, and monitored using ε340–380(NADH) = 4.81 mM^−1 cm^−1 [23]. Catalysis was initiated by addition of NADH and maximal rates determined by linear regression. NADH:O2 oxidoreduction by membranes was measured similarly but using 5 μg mL^−1 membranes in 10 mM Tris-HCl (pH 7.4) and 250 mM sucrose using 200 μM NADH and supplemented with 0.15 mM horse heart cytochrome c (Sigma-Aldrich Ltd.). Succinate:O2 oxidoreduction was measured using 40 μg mL^−1 membranes in 5 mM succinate in 10 mM Tris-HCl (pH 7.4) as described previously. Control experiments included NaCl (to match the ionic strength) or DMSO, as appropriate.
Experimental values are reported as mean averages ± standard deviation (SD) of technical replicates for large sample sizes and mean averages ± standard error of the mean (SEM) of technical replicates for small sample sizes. Data were analyzed by the unpaired two-tailed Student’s t test. IC50 values were determined using the standard dose-effect relationship (activity (%) = 100 × IC50 / (IC50 + [inhibitor]^m) with the Hill Slope (m) set to unity for purified complex I) and are reported with 95 % confidence intervals.

permeabilized MDBK cells = assay: ADP-stimulated rotenone-sensitive OCR in permeabilized MDBK cells; type: cell-based, Bos taurus; set-up: rotenone sensitive OCR after ADP stimulation, average / rotenone sensitive OCR after ADP stimulation: unit not given here; settings: for rotenone sensitive OCR after ADP stimulation, % of control, average / rotenone sensitive OCR after ADP stimulation, average / rotenone sensitive OCR after ADP stimulation / rotenone sensitive OCR after ADP stimulation, % of control: MDBK permeabilised cells; for rotenone sensitive OCR after ADP stimulation, % of control, average / rotenone sensitive OCR after ADP stimulation, average: average of replicates; for rotenone sensitive OCR after ADP stimulation / rotenone sensitive OCR after ADP stimulation, % of control: individual replicates
Description: For permeabilized cell experiments, cells were seeded into XF96 plates at 0.9–1.1 × 10^4 per well and incubated for 48 h at 37 °C in 5 % CO2. Then, the growth medium was exchanged for assay buffer containing 3 nM plasma membrane permeabilizer ‘PMP’ (Seahorse Biosciences Inc.), 10 mM glutamate, 10 mM malate, 220 mM mannitol, 70 mM sucrose, 10 mM KH2PO4, 5 mM MgCl2, 1 mM EGTA, 0.2 % fatty acid-free bovine serum albumin (BSA), and 2 mM HEPES (pH 7.4 at 37 °C). […] The biguanides were allowed to accumulate for 30 min, then respiration was […] by the addition of 4 mM ADP. Rotenone was added (2 μM) at the end of the experiment.
Rotenone-sensitive OCRs were calculated by subtracting the rotenone-insensitive rates (determined at the end of the experiment). OCRs were normalized by dividing by the OCR recorded immediately prior to the addition of biguanide. For rate of uptake calculations, the OCRs at time points after biguanide addition were divided by the OCRs at the same time points in control experiments. Data from wells with failed port injections were excluded from the analyses. The respiratory control ratio (RCR) values (state III versus state IV respiration) were ~11 and ~6 for permeabilized MDBK and 143B cells, respectively.

[2] = Octanol/PBS partition coefficient, shake-flask method; type: physicochemical; settings: 32 °C, pH 7.4, n = 3
Description: Octanol/PBS partition coefficients were measured by the shake-flask method at 32 °C, pH 7.4.

143B cells = assay: Membrane potential measurement by TMRM fluorescence; type: cell-based, human
Description: 143B cells were seeded at 5 × 10^5 cells per 10 cm^2 well in DMEM containing 10 % FBS. […] The detached cells from each well were incubated in PBS containing 25 pg/mL tetramethylrhodamine, methyl ester (TMRM) and 20 μg/mL Hoescht stain for 20 min at 37 °C then washed twice and re-suspended in 200 μL PBS. TMRM fluorescence was detected using a NucleoCounter® NC 3000 cytometer with excitation at 530 nm and emission at 575 nm, with the Hoescht stain used to check for consistent cell density between samples.

isolated bovine heart complex I, sequence (P42026 38-216): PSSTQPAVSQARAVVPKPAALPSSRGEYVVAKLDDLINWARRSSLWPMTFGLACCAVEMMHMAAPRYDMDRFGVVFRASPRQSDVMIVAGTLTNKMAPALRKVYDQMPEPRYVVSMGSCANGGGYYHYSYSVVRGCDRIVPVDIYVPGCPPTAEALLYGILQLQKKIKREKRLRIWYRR
isolated bovine heart complex I, sequence (P17694 34-463): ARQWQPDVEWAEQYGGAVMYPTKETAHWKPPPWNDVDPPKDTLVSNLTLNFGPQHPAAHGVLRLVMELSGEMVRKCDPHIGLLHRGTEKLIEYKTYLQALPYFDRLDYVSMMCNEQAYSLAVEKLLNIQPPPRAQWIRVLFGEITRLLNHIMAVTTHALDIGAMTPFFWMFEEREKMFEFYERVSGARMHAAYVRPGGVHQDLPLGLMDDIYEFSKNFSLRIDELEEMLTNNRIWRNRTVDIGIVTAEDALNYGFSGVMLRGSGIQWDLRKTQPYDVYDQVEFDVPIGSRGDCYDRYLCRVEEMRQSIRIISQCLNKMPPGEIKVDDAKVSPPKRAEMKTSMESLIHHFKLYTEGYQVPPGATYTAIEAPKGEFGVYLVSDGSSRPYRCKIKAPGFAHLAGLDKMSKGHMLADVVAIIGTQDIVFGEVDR
isolated bovine heart complex I, sequence (P03898 whole entry): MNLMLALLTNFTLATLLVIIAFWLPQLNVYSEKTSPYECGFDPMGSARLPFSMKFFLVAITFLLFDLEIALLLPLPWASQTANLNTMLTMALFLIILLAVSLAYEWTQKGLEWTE
isolated bovine heart complex I, sequence (P03887 whole entry): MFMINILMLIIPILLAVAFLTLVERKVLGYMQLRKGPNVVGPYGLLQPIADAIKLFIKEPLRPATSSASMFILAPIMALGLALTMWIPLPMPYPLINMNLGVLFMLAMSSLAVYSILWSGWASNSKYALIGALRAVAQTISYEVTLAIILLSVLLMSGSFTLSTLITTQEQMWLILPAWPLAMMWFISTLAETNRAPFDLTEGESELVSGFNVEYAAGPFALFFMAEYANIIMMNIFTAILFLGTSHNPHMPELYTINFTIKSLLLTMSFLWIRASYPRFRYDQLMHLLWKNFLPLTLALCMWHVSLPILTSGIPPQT

Compound: CC(C)N=C(N)N=C(N)N [compound 4, 1-(diaminomethylidene)-2-(propan-2-yl)guanidine]
- rotenone sensitive OCR after ADP stimulation, % of control, average (rat liver mitochondria): 8.94 % of control
- rotenone sensitive OCR after ADP stimulation, average (rat liver mitochondria): 2.45
- rotenone sensitive OCR after ADP stimulation, % of control, individual replicates (rat liver mitochondria): 10.19 % of control and 7.26 % of control and 8.19 % of control and 10.12 % of control
- rotenone sensitive OCR after ADP stimulation, individual replicates (rat liver mitochondria): 2.79 and 1.99 and 2.25 and 2.77
- HillSlope (best fit value) [1]: 1
- IC50 [1]: 6.76 mM
- remaining activity at 620 µM ([1]; inhibitor 0.62 mM, read-out: average % (rate, % of no-inhibitor control)): 88.4%
- remaining activity at 1560 µM ([1]; inhibitor 1.56 mM, read-out: average % (rate, % of no-inhibitor control)): 84.5%
- remaining activity at 3000 µM ([1]; inhibitor 3.00 mM, read-out: average % (rate, % of no-inhibitor control)): 70.3%
- remaining activity at 5800 µM ([1]; inhibitor 5.80 mM, read-out: average % (rate, % of no-inhibitor control)): 54.5%
- remaining activity at 15620 µM ([1]; inhibitor 15.62 mM, read-out: average % (rate, % of no-inhibitor control)): 30.1%
- remaining activity at 31250 µM ([1]; inhibitor 31.25 mM, read-out: average % (rate, % of no-inhibitor control)): 16.1%
- remaining activity at 62500 µM ([1]; inhibitor 62.50 mM, read-out: average % (rate, % of no-inhibitor control)): 5.52%
- LogIC50 (best fit value) [1]: 0.8297
- inhibition of OCR (permeabilized MDBK cells; MDBK cells, 30 min, data used for Fig. 4c matrix concentration estimate): exceeded 90%
- rotenone sensitive OCR after ADP stimulation, % of control, average (permeabilized MDBK cells): 3.16 % of control
- rotenone sensitive OCR after ADP stimulation, average (permeabilized MDBK cells): 8.89
- rotenone sensitive OCR after ADP stimulation, % of control, average (permeabilized MDBK cells; biguanide at IC50/5): 3.16 % of control
- rotenone sensitive OCR after ADP stimulation, average (permeabilized MDBK cells; biguanide at IC50/5): 8.89
- rotenone sensitive OCR after ADP stimulation (permeabilized MDBK cells; biguanide at IC50/5): 14.20 and 41.21 and 15.97 and 1.99 and -24.18 and 20.17 and 9.00 and -7.21
- rotenone sensitive OCR after ADP stimulation, % of control (permeabilized MDBK cells; biguanide at IC50/5): 5.04 % of control and 14.62 % of control and 5.67 % of control and 0.71 % of control and -8.58 % of control and 7.16 % of control and 3.19 % of control and -2.56 % of control
- P (partition coefficient) [2]: 0.061
- logP [2]: -1.21

Compound: CC(C)N=C(N)N=C(N)NC(C)C [compound 5, N-(propan-2-yl)-1-3-(propan-2-yl)carbamimidamidomethanimidamide]
- rotenone sensitive OCR after ADP stimulation, % of control, average (rat liver mitochondria): 92.45 % of control
- rotenone sensitive OCR after ADP stimulation, average (rat liver mitochondria): 25.35
- rotenone sensitive OCR after ADP stimulation, % of control, individual replicates (rat liver mitochondria): 107.71 % of control and 88.69 % of control and 80.94 % of control
- rotenone sensitive OCR after ADP stimulation, individual replicates (rat liver mitochondria): 29.53 and 24.32 and 22.19
- HillSlope (best fit value) [1]: 1
- IC50 [1]: 0.246 mM
- remaining activity at 50 µM ([1]; inhibitor 0.05 mM, read-out: average % (rate, % of no-inhibitor control)): 79.4%
- remaining activity at 100 µM ([1]; inhibitor 0.10 mM, read-out: average % (rate, % of no-inhibitor control)): 70.7%
- remaining activity at 200 µM ([1]; inhibitor 0.20 mM, read-out: average % (rate, % of no-inhibitor control)): 55.4%
- remaining activity at 400 µM ([1]; inhibitor 0.40 mM, read-out: average % (rate, % of no-inhibitor control)): 37.9%
- remaining activity at 1000 µM ([1]; inhibitor 1.00 mM, read-out: average % (rate, % of no-inhibitor control)): 20.8%
- remaining activity at 2000 µM ([1]; inhibitor 2.00 mM, read-out: average % (rate, % of no-inhibitor control)): 12.9%
- remaining activity at 4000 µM ([1]; inhibitor 4.00 mM, read-out: average % (rate, % of no-inhibitor control)): 9.93%
- LogIC50 (best fit value) [1]: -0.609
- rotenone sensitive OCR after ADP stimulation, % of control, average (permeabilized MDBK cells): 94.54 % of control
- rotenone sensitive OCR after ADP stimulation, average (permeabilized MDBK cells): 266.44
- rotenone sensitive OCR after ADP stimulation, % of control, average (permeabilized MDBK cells; biguanide at IC50/5): 94.54 % of control
- rotenone sensitive OCR after ADP stimulation, average (permeabilized MDBK cells; biguanide at IC50/5): 266.44
- rotenone sensitive OCR after ADP stimulation (permeabilized MDBK cells; biguanide at IC50/5): 341.66 and 308.83 and 224.55 and 216.86 and 280.18 and 213.17 and 210.97 and 335.32
- rotenone sensitive OCR after ADP stimulation, % of control (permeabilized MDBK cells; biguanide at IC50/5): 121.23 % of control and 109.59 % of control and 79.68 % of control and 76.95 % of control and 99.42 % of control and 75.64 % of control and 74.86 % of control and 118.98 % of control
- P (partition coefficient) [2]: 3.371
- logP [2]: 0.528

Compound: [H]/N=C(/N)N/C(=N/[H])NCCc1ccccc1 [phenformin, reference compound]
- rotenone sensitive OCR after ADP stimulation, % of control, average (rat liver mitochondria): 22.17 % of control
- rotenone sensitive OCR after ADP stimulation, average (rat liver mitochondria): 6.08
- rotenone sensitive OCR after ADP stimulation, % of control, individual replicates (rat liver mitochondria): 23.43 % of control and 20.89 % of control and 22.08 % of control and 22.26 % of control
- rotenone sensitive OCR after ADP stimulation, individual replicates (rat liver mitochondria): 6.42 and 5.73 and 6.05 and 6.10
- rotenone sensitive OCR after ADP stimulation, % of control, average (permeabilized MDBK cells): 14.11 % of control
- rotenone sensitive OCR after ADP stimulation, average (permeabilized MDBK cells): 39.76
- rotenone sensitive OCR after ADP stimulation, % of control, average (permeabilized MDBK cells; biguanide at IC50/5): 14.11 % of control
- rotenone sensitive OCR after ADP stimulation, average (permeabilized MDBK cells; biguanide at IC50/5): 39.76
- rotenone sensitive OCR after ADP stimulation (permeabilized MDBK cells; biguanide at IC50/5): 45.64 and 68.90 and 0.07 and 37.54 and 39.83 and 25.16 and 62.96 and 38.03
- rotenone sensitive OCR after ADP stimulation, % of control (permeabilized MDBK cells; biguanide at IC50/5): 16.19 % of control and 24.45 % of control and 0.025 % of control and 13.32 % of control and 14.13 % of control and 8.93 % of control and 22.34 % of control and 13.49 % of control
- TMRM fluorescence, % of the control value (143B cells; after 6.5 h, phenformin at IC50/10 (34 μM), FCCP at 1 μM, n = 3): 22.4 ± 2.9%
- mean-y (TMRM) (143B cells; individual replicates, phenformin 6.5 hours): 3427.6 and 3669.9 and 3614.5
- TMRM average (143B cells; n 3, phenformin 6.5 hours): 3570.67
- TMRM average, % control (143B cells; n 3, phenformin 6.5 hours): 22.44 % control
